Measured values published in patent publication US8883410B2, “Method for determining the stability of organic methyleneamines in the presence of semicarbazide-sensitive amine oxidase” (Sanofi, priority 2007, dated 2014).

Tests used:
[1] = Benzylamine stability in control cell lysate (no SSAO expressed), LC/MS/MS; type: in vitro ADME; conditions: tag None
Method: (§1) Adherent CHO cells were cultured at 37° C., 5% CO2 in media containing Ham's F12, 10% fetal bovine serum, 2 mM L-glutamine, 1% Penicillin/Streptomycin, 300 μM hygromycin B. Adherent HEK 293 cells were cultured at 37° C., 5% CO2 in D-MEM (high glucose), 10% fetal bovine serum, 2 mM L-glutamine, and 200 μM hygromycin B. Stable transformants were identified by loss of zeocin resistance. Once the cells were 80% confluent, SSAO expression was induced by the addition of Tetracycline to 1 μg/mL. Following 18 hours, the cells were harvested using a trypsin treatment of 3 minutes, at room temperature. Cells were washed 3 times in phosphate buffered saline before flash freezing in liquid nitrogen.
(§2) For the preparation of cell lysate for activity testing, frozen cell pellets were resuspended in lysate buffer containing 10 mM Tris-HCl (pH 7.2), 150 mM NaCl, 1.5 mM MgCl2, 1% v/v NP-40 and incubated for 15 minutes on ice. Lysate was cleared by centrifugation 800×g for 10 minutes, 4° C. and stored in aliquots at −80° C. until use. Proteins were determined using Pierce Coomassie Protein Reagent, according to manufacturer's instructions.
(§3) For each assay run, 1 mL of cell lysate (1.5 mg/mL protein) was mixed with benzylamine to 2000 ng/mL final concentration. At each corresponding time point, […] the incubation mixture was transferred to a microcentrifuge tube (1.7 mL) and mixed with 50 μL of acetonitrile. The tubes were vortex mixed briefly to ensure complete mixing and then centrifuged at 10,000×g for 5 minutes. The supernatant was removed and 50 μL was transferred to an autosampler vial and mixed with 50 μL of water before LC/MS/MS analysis. Benzylamine remaining in the lysate was analyzed with LC/MS/MS method.
(§4) LC/MS/MS analysis was performed with a PE Sciex API 3000 mass spectrometer under the following conditions listed below and in Tables 1 and 2: […]

[2] = target: T1, human SSAO T2 (Met211-Asn763), untagged (Homo sapiens, UniProt Q16853); assay: Benzylamine stability in lysate of cells expressing T2 SSAO (untagged), LC/MS/MS; type: in vitro ADME; conditions: tag None
T1 construct: T2 (Met211-Asn763) Representing the Putative Catalytic Domain; expressed in transfected cells; cell lysate
T1 sequence (Q16853 211-763): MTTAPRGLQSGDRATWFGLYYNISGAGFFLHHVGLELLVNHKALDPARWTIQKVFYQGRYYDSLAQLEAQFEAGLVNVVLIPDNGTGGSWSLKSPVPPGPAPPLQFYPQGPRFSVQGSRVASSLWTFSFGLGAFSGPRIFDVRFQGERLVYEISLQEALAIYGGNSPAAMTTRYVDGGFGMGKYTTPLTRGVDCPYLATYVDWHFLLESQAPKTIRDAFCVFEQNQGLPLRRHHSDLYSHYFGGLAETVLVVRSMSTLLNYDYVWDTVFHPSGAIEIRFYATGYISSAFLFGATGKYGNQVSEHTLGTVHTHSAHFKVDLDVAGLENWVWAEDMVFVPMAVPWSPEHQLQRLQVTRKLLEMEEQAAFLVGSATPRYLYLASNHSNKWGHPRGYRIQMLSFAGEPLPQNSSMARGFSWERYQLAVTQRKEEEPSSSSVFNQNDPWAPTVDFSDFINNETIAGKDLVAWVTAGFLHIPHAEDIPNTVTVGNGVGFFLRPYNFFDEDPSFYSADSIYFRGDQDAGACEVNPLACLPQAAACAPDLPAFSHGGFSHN
Method: 4) T2 (Met211-Asn763) Representing the Putative Catalytic Domain.
The expression constructs were prepared by cloning these PCR products into the pCDNA5-FRT-To-DEST vector (Invitrogen, Gateway System™). The forward and reverse DNA sequence of each construct was confirmed including expressed sequences and at least 100 base pairs either side of this. Stable cell lines for Flp-In CHO, Flp-In CHO T-Rex, and Flp-In HEK 293 (Invitrogen, Flp-In system™) were generated using these 6 constructs according to manufacturer's instructions. Cells were co-transfected with the regulatory vector, pOG44, and each of the pCDNA5-FRT-To-DEST constructs using Lipfectamine (Invitrogen) according to manufacturer's instructions. Thus, 18 cell lines were generated: CHO Flp-In full-length SSAO; CHO Flp-In full-length SSAO with C-terminal 6×HIS tag; CHO Flp-In T1 SSAO; CHO Flp-In T1 SSAO with C-terminal 6×HIS tag; CHO Flp-In T2 SSAO; CHO Flp-In T2 SSAO with C-terminal 6×HIS tag; CHO T-Rex Flp-In full-length SSAO; CHO T-Rex Flp-In full-length SSAO with C-terminal 6×HIS tag; CHO T-Rex Flp-In T1 SSAO; CHO T-Rex Flp-In T1 SSAO with C-terminal 6×HIS tag; CHO T-Rex Flp-In T2 SSAO; CHO Flp-In T2 SSAO with C-terminal 6×HIS tag; HEK 293 Flp-In full-length SSAO; HEK 293 Flp-In full-length SSAO with C-terminal 6×HIS tag; HEK 293 Flp-In T1 SSAO; HEK 293 Flp-In T1 SSAO with C-terminal 6×HIS tag; HEK 293 Flp-In T2 SSAO; HEK 293 Flp-In T2 SSAO with C-terminal 6×HIS tag.
as §1, §2, §3, §4

- Benzylamine Remaining (%) ([1]; CHO Flp-In T-Rex lysate, SSAO None, 0 min): 100%
- Benzylamine Remaining (%) ([1]; CHO Flp-In T-Rex lysate, SSAO None, 10 min): 104%
- Benzylamine Remaining (%) ([1]; CHO Flp-In T-Rex lysate, SSAO None, 2 h): 99%
- Benzylamine Remaining (%) ([1]; Control CHO Flp-In lysate, SSAO none, 0 min): 100%
- Benzylamine Remaining (%) ([1]; Control CHO Flp-In lysate, SSAO none, 10 min): 104%
- Benzylamine Remaining (%) ([1]; Control CHO Flp-In lysate, SSAO none, 2 h): 99%
- Benzylamine Remaining (%) ([1]; Control CHO lysate, SSAO none, 0 min): 100%
- Benzylamine Remaining (%) ([1]; Control CHO lysate, SSAO none, 10 min): 111%
- Benzylamine Remaining (%) ([1]; Control CHO lysate, SSAO none, 2 h): 110%
- Benzylamine Remaining (%) ([1]; HEK293 control lysate, SSAO none, 0 min): 100%
- Benzylamine Remaining (%) ([1]; HEK293 control lysate, SSAO none, 10 min): 106%
- Benzylamine Remaining (%) ([1]; HEK293 control lysate, SSAO none, 2 h): 123%
- Benzylamine Remaining (%) ([2]; CHO Flp-In T-Rex lysate, 0 min): 100%
- Benzylamine Remaining (%) ([2]; CHO Flp-In T-Rex lysate, 10 min): 97%
- Benzylamine Remaining (%) ([2]; CHO Flp-In T-Rex lysate, 2 h): 83%
- Benzylamine Remaining (%) ([2]; CHO Flp-In lysate, 0 min): 100%
- Benzylamine Remaining (%) ([2]; CHO Flp-In lysate, 10 min): 105%
- Benzylamine Remaining (%) ([2]; CHO Flp-In lysate, 2 h): 98%
- Benzylamine Remaining (%) ([2]; HEK293 lysate, 0 min): 100%
- Benzylamine Remaining (%) ([2]; HEK293 lysate, 10 min): 113%
- Benzylamine Remaining (%) ([2]; HEK293 lysate, 2 h): 101%
SMILES: NCc1ccccc1 [Benzylamine]
